Source: patent US11618747B2, “LXR modulators with bicyclic core moiety” (OrsoBio, Inc., priority 2018, dated 2023)
Like-named read-outs stand apart in the source and are kept apart here.

Tests used:
full length (FL) LXRβ = target: T1, full length (FL) LXRβ (Homo sapiens, UniProt P55055, DUP175-175); assay: LXR Gal4 reporter transient transfection assay (FL-M2H Gal4β); format: cell-based; settings: HEK293 cells
T1 construct: the full length (FL) proteins of LXRα (amino acids 1-447); NP005684; NP009052; expressed in transfected cells; host or cells: HEK293
T1 sequence (P55055 with tags, fused parts or gaps DUP175-175): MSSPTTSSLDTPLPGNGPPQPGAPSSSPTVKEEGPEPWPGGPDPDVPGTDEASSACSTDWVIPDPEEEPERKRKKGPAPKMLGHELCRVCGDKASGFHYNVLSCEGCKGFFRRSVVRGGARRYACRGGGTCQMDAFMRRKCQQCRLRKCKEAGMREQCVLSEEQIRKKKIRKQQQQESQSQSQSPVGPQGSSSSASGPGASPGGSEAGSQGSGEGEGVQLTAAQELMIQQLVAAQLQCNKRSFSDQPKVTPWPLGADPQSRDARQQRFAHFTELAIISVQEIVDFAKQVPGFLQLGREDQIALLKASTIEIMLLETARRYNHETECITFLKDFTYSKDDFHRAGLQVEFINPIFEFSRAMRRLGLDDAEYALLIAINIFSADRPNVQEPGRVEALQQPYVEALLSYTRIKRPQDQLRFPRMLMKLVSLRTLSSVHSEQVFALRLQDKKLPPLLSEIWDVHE
Method in brief: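 HEK293 cells were transiently co-transfected with NFkB activation-domain fusions of LXR (full length or LBD) and GAL4 DNA-binding-domain fusions of SRC1 (aa 552-887) or NCoR (aa 1906-2312), plus a GAL4-response-element Firefly luciferase reporter and a Renilla control. Compounds were added 4 h post-transfection, cells incubated 16 h, then dual luciferase read.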

[1] = target: T2, LXRβ ligand-binding domain (Homo sapiens, UniProt P55055, DUP175-175); assay: TR-FRETβ activity assay (NCoA3 coactivator peptide recruitment); format: biochemical
T2 construct: amino acids 156-461; NP009052; made in house; host or cells: E. coli
T2 sequence (P55055 with tags, fused parts or gaps DUP175-175 limits assumed): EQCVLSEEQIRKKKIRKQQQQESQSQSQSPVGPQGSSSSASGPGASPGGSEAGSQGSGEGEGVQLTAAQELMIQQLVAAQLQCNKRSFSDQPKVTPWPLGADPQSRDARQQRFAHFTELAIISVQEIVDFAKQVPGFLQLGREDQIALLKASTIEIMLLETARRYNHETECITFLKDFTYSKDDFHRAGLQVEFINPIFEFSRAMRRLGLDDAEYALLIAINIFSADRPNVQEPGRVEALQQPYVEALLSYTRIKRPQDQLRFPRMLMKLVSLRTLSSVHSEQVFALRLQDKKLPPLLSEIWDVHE
Method in brief: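 GST-tagged human LXRβ LBD (aa 156-461, E. coli) at 76 nM with 400 nM biotinylated NCoA3 peptide in Tris/HCl pH 6.8, 240 mM KCl, BSA, 0.002% Triton-X-100, plus 1 μM 24(S)-25-epoxycholesterol as prestimulating agonist. Compounds at 50 μM down to 0.002 μM, 1 h at 4 °C. Coactivator recruitment by TR-FRET (Tb cryptate/XL665, 615/665 nm), triplicates.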

[2] = full length LXRβ, read-out: FL-M2H Gal4β (EC50 range)
[3] = 1 μM 24(S)-25-epoxycholesterol as prestimulating agonist
[4] = 1 μM 24(S)-25-epoxycholesterol as prestimulating agonist, read-out: FRETβ potency
[5] = TR-FRET, 1 μM 24(S)-25-epoxycholesterol prestimulation, read-out: FRETβ (EC50 range)

SMILES	EC50 (full length (FL) LXRβ; [2])	FRETβ efficacy (value in brackets) [1, 3]	EC50 [1, 4]	EC50 [1, 5]	FL-M2H Gal4β efficacy (value in brackets) (full length (FL) LXRβ)	EC50 (full length (FL) LXRβ; read-out: FL-M2H Gal4β potency)
Cc1ccc(S(=O)(=O)n2c(-c3cccc(N4CC(C(=O)O)C4)c3)c(-c3ccsc3C#N)c3cc(F)ccc32)cc1 [3/32]	< 100 nM	−98%	551 nM	100 to 1000 nM	–	–
Cc1ccc(S(=O)(=O)n2c(-c3cccc(N4CC(C(=O)O)C4)c3)c(-c3ccsc3C#N)c3cc(F)c(F)cc32)cc1 [3/42]	< 100 nM	–	–	1000 to 10000 nM	–	–
Cc1ccc(S(=O)(=O)n2c(-c3cccc(N4CC(C(=O)O)C4)c3)c(-c3ccsc3C#N)c3cc(F)c(Cl)cc32)cc1 [3/43]	< 100 nM	–	–	1000 to 10000 nM	–	–
Cc1ccc(S(=O)(=O)n2c(-c3cccc(N4CC(C(=O)O)C4)c3)c(-c3ccsc3C#N)c3cc(Cl)ccc32)cc1 [3/44]	< 100 nM	–	–	1000 to 10000 nM	–	–
Cc1ccc(S(=O)(=O)n2c(-c3cccc(N4CC(C(=O)O)C4)c3)c(-c3ccsc3C#N)c3cc(C)ccc32)cc1 [3/46]	< 100 nM	–	–	100 to 1000 nM	–	–
Cc1ccc(S(=O)(=O)n2c(-c3cccc(-c4ccc(C(=O)O)cc4Cl)c3)c(-c3ccsc3C#N)c3cc(F)ccc32)cc1 [3/48]	< 100 nM	–	–	100 to 1000 nM	–	–
O=C(O)c1ccc(-c2cccc(-c3c(-c4ccccc4C4COC4)c4cc(F)ccc4n3S(=O)(=O)c3ccc(C(F)F)cc3)c2)c(Cl)c1 [3/59]	< 100 nM	–	–	< 100 nM	–	–
Cc1ccc(S(=O)(=O)n2c(-c3cccc(C45CCC(C(=O)O)(CC4)CC5)c3)c(-c3ccsc3C#N)c3cc(F)ccc32)cc1 [3/64]	< 100 nM	–	–	100 to 1000 nM	–	–
N#Cc1cccc(C#N)c1-c1c(-c2cccc(-c3c(F)cc(CC(=O)O)cc3F)c2)n(S(=O)(=O)c2ccc(C(F)F)cc2)c2ccc(F)cc12 [3/73]	< 100 nM	–	–	< 100 nM	–	–
Cc1ccc(S(=O)(=O)n2c(-c3cccc(-c4ccc(C(=O)O)cc4)c3)c(-c3ccsc3C#N)c3cc(F)ccc32)cc1 [5/3]	< 100 nM	–	–	100 to 1000 nM	–	–
CC(=O)NS(=O)(=O)c1ccc(-c2cccc(-c3c(-c4c(C#N)cccc4C#N)c4cc(F)ccc4n3S(=O)(=O)c3ccc(C(F)F)cc3)c2)c(Cl)c1 [8/8]	< 100 nM	–	–	< 100 nM	–	–
N#Cc1cccc(C#N)c1-c1c(-c2cccc(-c3ccc(C(=O)NCCS(=O)(=O)O)cc3Cl)c2)n(S(=O)(=O)c2ccc(C(F)F)cc2)c2ccc(F)cc12 [10/1]	< 100 nM	–	–	< 100 nM	–	–
CN(CCS(=O)(=O)O)C(=O)c1ccc(-c2cccc(-c3c(-c4c(C#N)cccc4C#N)c4cc(F)ccc4n3S(=O)(=O)c3ccc(C(F)F)cc3)c2)c(Cl)c1 [10/2]	< 100 nM	–	–	< 100 nM	–	–
N#Cc1nccnc1-c1c(-c2cccc(-c3cc(F)c(C(=O)O)cc3Cl)c2)n(S(=O)(=O)c2ccc(C(F)F)cc2)c2ccc(F)cc12 [11/11]	< 100 nM	–	–	< 100 nM	–	–
N#Cc1cccc(C#N)c1-c1c(-c2cccc(-c3ccc(C(=O)O)cc3Cl)c2)n(S(=O)(=O)c2ccc(C(F)F)cc2)c2ccc(F)cc12 [11/12]	< 100 nM	–	–	< 100 nM	–	–
O=C(O)c1ccc(-c2cccc(-c3c(-c4c(Cl)cccc4Cl)c4cc(F)ccc4n3S(=O)(=O)c3ccc(C(F)F)cc3)c2)c(Cl)c1 [11/13]	< 100 nM	–	–	< 100 nM	–	–
N#Cc1sccc1-c1c(-c2cccc(-c3ccc(C(=O)O)cc3Cl)c2)n(S(=O)(=O)c2ccc(C(F)(F)F)nc2)c2ccc(F)cc12 [11/16]	< 100 nM	–	–	100 to 1000 nM	–	–
O=C(O)c1ccc(-c2cccc(-c3c(-c4ncccc4C(F)(F)F)c4cc(F)ccc4n3S(=O)(=O)c3ccc(C(F)F)cc3)c2)c(Cl)c1 [11/23]	< 100 nM	–	–	< 100 nM	–	–
N#Cc1cccnc1-c1c(-c2cccc(-c3ccc(C(=O)O)cc3Cl)c2)n(S(=O)(=O)c2ccc(C(F)F)cc2)c2ccc(F)cc12 [11/26]	< 100 nM	–	–	< 100 nM	–	–
COc1c(C(=O)O)ccc(-c2cccc(-c3c(-c4ccccc4C#N)c4cc(F)ccc4n3S(=O)(=O)c3ccc(C(F)F)cc3)c2)c1Cl [11/27]	< 100 nM	–	–	< 100 nM	–	–
N#Cc1ccccc1-c1c(-c2cccc(-c3ccc(C(=O)O)cc3Cl)c2)n(S(=O)(=O)c2ccc(C(F)F)cc2)c2ccc(F)cc12 [11/33]	< 100 nM	−99%	19 nM	< 100 nM	130%	1.7 nM
N#Cc1cccc(C#N)c1-c1c(-c2cccc(-c3ccc(C(=O)O)cc3Cl)c2)n(S(=O)(=O)c2ccc(C(F)(F)F)nc2)c2ccc(F)cc12 [11/37]	< 100 nM	–	–	< 100 nM	–	–
N#Cc1ccccc1-c1c(-c2cccc(-c3ccc(C(=O)O)cc3Cl)c2)n(S(=O)(=O)c2ccc(C(F)F)cc2)c2cnccc12 [11/49]	< 100 nM	–	–	< 100 nM	–	–
N#Cc1cccc(C#N)c1-c1c(-c2cccc(-c3ccc(C(=O)O)cc3F)c2)n(S(=O)(=O)c2ccc(C(F)F)cc2)c2ccc(F)cc12 [11/51]	< 100 nM	–	–	< 100 nM	–	–
N#Cc1cccc(C#N)c1-c1c(-c2cccc(-c3c(F)cc(C(=O)O)cc3F)c2)n(S(=O)(=O)c2ccc(C(F)F)cc2)c2ccc(F)cc12 [11/53]	< 100 nM	–	–	< 100 nM	–	–
N#Cc1cccc(C#N)c1-c1c(-c2cccc(-c3ccc(C(=O)O)cc3Cl)c2)n(S(=O)(=O)C2CCC(F)(F)CC2)c2ccc(F)cc12 [11/63]	< 100 nM	–	–	100 to 1000 nM	–	–
N#Cc1cccc(C#N)c1-c1c(-c2cccc(-c3cc(F)c(C(=O)O)cc3Cl)c2)n(S(=O)(=O)c2ccc(C(F)F)cc2)c2ccc(F)cc12 [11/65]	< 100 nM	–	–	< 100 nM	–	–
N#Cc1cccc(C#N)c1-c1c(-c2cccc(-c3ccc(C(=O)NCC(=O)O)cc3Cl)c2)n(S(=O)(=O)c2ccc(C(F)F)cc2)c2ccc(F)cc12 [21/3]	< 100 nM	–	–	< 100 nM	–	–
Cc1ccc(S(=O)(=O)n2c(-c3cccc(-c4ccc(C(=O)O)cc4)c3)c(-c3ccsc3C#N)c3cc(F)ccc32)cc1C [23/2]	< 100 nM	–	–	100 to 1000 nM	–	–
